Biological target: T1, recombinant human FAAH (rhFAAH) (Homo sapiens, UniProt O00519)
T1 construct: purchased Cayman Chemical (Ann Arbor, MI, USA)
T1 sequence (O00519 1-579): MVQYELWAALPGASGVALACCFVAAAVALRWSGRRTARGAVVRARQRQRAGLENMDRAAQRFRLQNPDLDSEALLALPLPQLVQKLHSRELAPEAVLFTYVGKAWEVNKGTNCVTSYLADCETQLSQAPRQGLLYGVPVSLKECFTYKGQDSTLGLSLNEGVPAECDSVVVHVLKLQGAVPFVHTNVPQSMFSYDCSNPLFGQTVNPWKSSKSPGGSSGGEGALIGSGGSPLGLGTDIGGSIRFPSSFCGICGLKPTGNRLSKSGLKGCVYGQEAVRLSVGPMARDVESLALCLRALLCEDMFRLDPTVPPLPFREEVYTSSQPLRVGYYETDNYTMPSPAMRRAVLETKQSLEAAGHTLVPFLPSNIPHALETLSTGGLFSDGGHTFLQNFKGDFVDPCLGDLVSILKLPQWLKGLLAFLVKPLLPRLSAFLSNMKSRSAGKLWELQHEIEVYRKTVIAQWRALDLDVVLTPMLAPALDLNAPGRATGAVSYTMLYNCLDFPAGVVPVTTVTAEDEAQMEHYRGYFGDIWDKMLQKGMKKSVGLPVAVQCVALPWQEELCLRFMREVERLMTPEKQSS
Test: FAAH substrate evaluation (formation of acid metabolite, LC-MS/MS)
Format: biochemical
Set-up: key: A: ke is equal to or less than 1.0; B: ke is greater than 1.0 and less than or equal to 2.5; C: ke is greater than 2.5; NC: no conversion
Conditions: 0.5 ng/μL rhFAAH, 1 μM test compound, pH 8.0, room temperature, 0-60 minutes
Protocol: Purified recombinant human FAAH (rhFAAH) was purchased from Cayman Chemical (Ann Arbor, MI, USA). The total volume for each incubation was 400 μL containing a final 0.5 ng/μL rhFAAH, 1 μM test compound, 1.25% ethanol or 1 μM PF-3845 (FAAH inhibitor), and 0.1% bovine serum albumin in Tris-EDTA buffer at pH 8.0). The positive control was LL-341001. The incubation was conducted at the room temperature. At 0, 5, 15, 30 and 60 minutes, an aliquot of 30 μL reaction mixtures was removed and mixed with 300 μL acetonitrile containing 5 ng/mL terfenadine and 10 ng/mL tolbutamide as internal standards to quench the reaction. The resulting mixture was centrifuged at 4000 rpm, 4° C. for 15 minutes, and 100 μL supernatant was ready for LC-MS/MS analysis to measure the formation of acid metabolite.
Acquity Ultra Performance LC system from Waters was used for sample analysis. The chromatography was performed on a reverse phase Kinetex 2.6 μm C18 column, 2.1×30 mm, 100 Å. The mobile phase A comprised of 0.1% formic acid in water and mobile phase B comprised of 0.1% formic acid in acetonitrile with a 2-min run time at the flow rate of 0.8 mL/min for the acid metabolite from positive control or a 1.5 min run time at the flow rate of 0.9 mL/min for the acid metabolite of test compounds. The mass spectrometer (API-5500 and API Q Trap 4000 Applied Biosystems/MDS SCIEX Instruments, Framingham, MA, USA) was operated under ESI positive or negative ion MRM mode.
The formation of acid metabolite was monitored and quantified using one calibration point of 1 μM. The observed rate constant (ke) for the acid metabolite formation was calculated by plotting the metabolite concentration versus time of incubation with the slope being ke and is shown in Table 4.

SMILES	ke, observed rate constant for the acid metabolite formation
CNC(=O)CNc1cc(Cl)c(Cc2ccc(O)c(C(C)C)c2)c(Cl)c1 [Compound 175, 2-((3,5-dichloro-4-(4-hydroxy-3-isopropylbenzyl)phenyl)amino)-N-methylacetamide]	A (ke is equal to or less than 1.0)
CC(C)c1cc(Cc2c(Cl)cc(SCC(=O)N(C)C)cc2Cl)ccc1O [Compound 194, 2-((3,5-dichloro-4-(4-hydroxy-3-isopropylbenzyl)phenyl)thio)-N,N-dimethylacetamide]	NC
Cc1cc(CSCC(=O)Nc2cccnn2)cc(Cl)c1Cc1ccc(O)c(C(C)C)c1 [Compound 230, 2-((3-chloro-4-(4-hydroxy-3-isopropylbenzyl)-5-methylbenzyl)thio)-N-(pyridazin-3-yl)acetamide]	B (ke is greater than 1.0 and less than or equal to 2.5)
CNC(=O)CSc1cc(C)c(Cc2ccc(O)c(C(C)C)c2)c(Cl)c1 [Compound 242, 2-((3-chloro-4-(4-hydroxy-3-isopropylbenzyl)-5-methylphenyl)thio)-N-methylacetamide]	B (ke is greater than 1.0 and less than or equal to 2.5)
CC(C)CNC(=O)CNc1cc(Cl)c(Cc2ccc(O)c(C(C)C)c2F)c(Cl)c1F [Compound 164, 2-((3,5-dichloro-2-fluoro-4-(2-fluoro-4-hydroxy-3-isopropylbenzyl)phenyl)amino)-N-isobutylacetamide]	NC
CC(C)c1cc(Cc2c(Cl)cc(SCC(N)=O)cc2Cl)ccc1O [Compound 179, 2-((3,5-dichloro-4-(4-hydroxy-3-isopropylbenzyl)phenyl)thio)acetamide]	C (ke is greater than 2.5)
CNC(=O)/C(C)=C/c1cc(Cl)c(Cc2ccc(O)c(C(C)C)c2)c(C)c1F [Compound 237, (E)-3-(5-chloro-2-fluoro-4-(4-hydroxy-3-isopropylbenzyl)-3-methylphenyl)-N,2-dimethylacrylamide]	A (ke is equal to or less than 1.0)
CNC(=O)CNc1cc(Cl)c(Cc2ccc(O)c(C(C)C)c2)c(C)c1F [Compound 216, 2-((5-chloro-2-fluoro-4-(4-hydroxy-3-isopropylbenzyl)-3-methylphenyl)amino)-N-methylacetamide]	A (ke is equal to or less than 1.0)
CNC(=O)CNc1cc(C)c(Cc2ccc(O)c(C(C)C)c2F)c(Cl)c1 [Compound 235, 2-((3-chloro-4-(2-fluoro-4-hydroxy-3-isopropylbenzyl)-5-methylphenyl)amino)-N-methylacetamide]	A (ke is equal to or less than 1.0)
CNC(=O)CN(C)c1cc(Cl)c(Cc2ccc(O)c(C(C)C)c2)c(Cl)c1 [Compound 149, 2-((3,5-dichloro-4-(4-hydroxy-3-isopropylbenzyl)phenyl)(methyl)amino)-N-methylacetamide]	NC
COc1ccc(NC(=O)CSc2cc(Cl)c(Cc3ccc(O)c(C(C)C)c3)c(Cl)c2)nn1 [Compound 169, 2-((3,5-dichloro-4-(4-hydroxy-3-isopropylbenzyl)phenyl)thio)-N-(6-methoxypyridazin-3-yl)acetamide]	A (ke is equal to or less than 1.0)
CC(C)c1c(O)ccc(Cc2c(Cl)cc(NCC(N)=O)c(F)c2Cl)c1F [Compound 163, 2-((3,5-dichloro-2-fluoro-4-(2-fluoro-4-hydroxy-3-isopropylbenzyl)phenyl)amino)acetamide]	A (ke is equal to or less than 1.0)
COc1ccc(NC(=O)CNc2cc(Cl)c(Cc3ccc(O)c(C(C)C)c3F)c(Cl)c2F)nn1 [Compound 159, 2-((3,5-dichloro-2-fluoro-4-(2-fluoro-4-hydroxy-3-isopropylbenzyl)phenyl)amino)-N-(6-methoxypyridazin-3-yl)acetamide]	B (ke is greater than 1.0 and less than or equal to 2.5)
CC(C)c1c(O)ccc(Cc2c(Cl)cc(NCC(=O)Nc3cccnc3)c(F)c2Cl)c1F [Compound 160, 2-((3,5-dichloro-2-fluoro-4-(2-fluoro-4-hydroxy-3-isopropylbenzyl)phenyl)amino)-N-(pyridin-3-yl)acetamide]	B (ke is greater than 1.0 and less than or equal to 2.5)
CNC(=O)CCc1cc(Cl)c(Cc2ccc(O)c(C(C)C)c2)c(Cl)c1F [Compound 66, 3-(3,5-dichloro-2-fluoro-4-(4-hydroxy-3-isopropylbenzyl)phenyl)-N-methylpropanamide]	A (ke is equal to or less than 1.0)
Cc1cc(CSCC(=O)N2CCC2)cc(Cl)c1Cc1ccc(O)c(C(C)C)c1 [Compound 228, 1-(azetidin-1-yl)-2-((3-chloro-4-(4-hydroxy-3-isopropylbenzyl)-5-methylbenzyl)thio)ethan-1-one]	A (ke is equal to or less than 1.0)
CC(C)c1cc(Cc2c(Cl)cc(CSCC(=O)N(C)C)cc2Cl)ccc1O [Compound 191, 2-((3,5-dichloro-4-(4-hydroxy-3-isopropylbenzyl)benzyl)thio)-N,N-dimethylacetamide]	NC
CNC(=O)CCc1cc(Cl)c(Cc2ccc(O)c(C(C)C)c2F)c(Cl)c1F [Compound 72, 3-(3,5-dichloro-2-fluoro-4-(2-fluoro-4-hydroxy-3-isopropylbenzyl)phenyl)-N-methylpropanamide]	A (ke is equal to or less than 1.0)
CNC(=O)CSc1cc(Cl)c(Cc2ccc(O)c(C(C)C)c2)c(Cl)c1F [Compound 190, 2-((3,5-dichloro-2-fluoro-4-(4-hydroxy-3-isopropylbenzyl)phenyl)thio)-N-methylacetamide]	B (ke is greater than 1.0 and less than or equal to 2.5)
CC(C)c1cc(Cc2c(Cl)cc(SCC(=O)Nc3cccnc3)cc2Cl)ccc1O [Compound 170, 2-((3,5-dichloro-4-(4-hydroxy-3-isopropylbenzyl)phenyl)thio)-N-(pyridin-3-yl)acetamide]	C (ke is greater than 2.5)
CC(C)c1c(O)ccc(Cc2c(Cl)cc(NCC(=O)Nc3ccncc3)c(F)c2Cl)c1F [Compound 161, 2-((3,5-dichloro-2-fluoro-4-(2-fluoro-4-hydroxy-3-isopropylbenzyl)phenyl)amino)-N-(pyridin-4-yl)acetamide]	B (ke is greater than 1.0 and less than or equal to 2.5)
CCNC(=O)CSc1cc(Cl)c(Cc2ccc(O)c(C(C)C)c2)c(Cl)c1F [Compound 189, 2-((3,5-dichloro-2-fluoro-4-(4-hydroxy-3-isopropylbenzyl)phenyl)thio)-N-ethylacetamide]	A (ke is equal to or less than 1.0)
CCNC(=O)CNc1cc(Cl)c(Cc2ccc(O)c(C(C)C)c2F)c(Cl)c1F [Compound 165, 2-((3,5-dichloro-2-fluoro-4-(2-fluoro-4-hydroxy-3-isopropylbenzyl)phenyl)amino)-N-ethylacetamide]	A (ke is equal to or less than 1.0)
CC(C)c1c(O)ccc(Cc2c(Cl)cc(NCC(=O)NCCCF)c(F)c2Cl)c1F [Compound 155, 2-((3,5-dichloro-2-fluoro-4-(2-fluoro-4-hydroxy-3-isopropylbenzyl)phenyl)amino)-N-(3-fluoropropyl)acetamide]	A (ke is equal to or less than 1.0)
CNC(=O)CNc1cc(Cl)c(Cc2ccc(O)c(C(C)C)c2F)c(Cl)c1 [Compound 47, 2-((3,5-dichloro-4-(2-fluoro-4-hydroxy-3-isopropylbenzyl)phenyl)amino)-N-methylacetamide]	A (ke is equal to or less than 1.0)

Source: patent US12528761B2, “Thyromimetics” (Autobahn Therapeutics, Inc., priority 2020, dated 2026)
